According to US20030055107A1, “Forms of pharmaceutically active agents and method for manufacture thereof” (priority 2001, published 2003):
Values belong to the compound of their own block, whether it stands above or below them.

Key:
[1] = cited from earlier work
[2] = Dissolution of dried new form in water (observation); assay type: physicochemical; conditions: dried form with potassium cation placed in water
From the text: The new ibuprofen form of the present invention dissociates into ibuprofen in its free acid form.

[3] = Dynamic Vapor Sorption Moisture Balance, relative weight gain due to moisture pickup; assay type: physicochemical; conditions: for critical humidity: cycled between 0% RH to 95% RH to 0% RH over 48 hours at 25° C.
Description: Samples were cycled between 0% RH to 95% RH to 0% RH over 48 hours at 25° C. […] At 50% humidity, the relative weight gain due to moisture pickup was about 25% while at 70% humidity the relative weight gain was about 35%. […] At 50% humidity the relative weight gain due to moisture pickup was about 1.4% and at 70% humidity the weight gain was bout 2%.

SMILES: CC(C)Cc1ccc(C(C)C(=O)O)cc1 (racemic) [Ibuprofen, ibuprofen]
solubility in water ([1]; water): < 100 µg/mL

dissolution in water (in words) [2]: readily dissolves in water
dissolution in water (in words) ([2]; listed as ibuprofen form of the present invention wherein the cation is potassium): immediate dissolution
hygroscopicity compared to the potassium salt of ibuprofen ([3]; 0-95% RH cycle, 25° C.): significantly less hygroscopic
critical humidity [3]: about 30%
SMILES: CC(C)Cc1ccc(C(C)C(=O)O)cc1.CC(C)Cc1ccc(C(C)C(=O)[O-])cc1.[K+] (stereo not shown) [new ibuprofen form]
physical change of sample during humidity cycling ([3]; 0-95% RH cycle, 25° C.): No change in crystal appearance was observed

SMILES: CO[C@@H]1[C@@H](OC(N)=O)[C@@H](O)[C@H](Oc2ccc3c(O)c(NC(=O)c4ccc(O)c(CC=C(C)C)c4)c(=O)oc3c2C)OC1(C)C [novobiocin]
solubility of amorphous substance versus crystalline agent ([1]; amorphous vs crystalline, Mullins and Macek 1960): ten times higher

physical change of sample during humidity cycling ([3]; 0-95% RH cycle, 25° C.): the sample dissolved and formed a gel
critical humidity [3]: about 30%
SMILES: CC(C)Cc1ccc(C(C)C(=O)O)cc1.[K] (stereo not shown) [potassium ibuprofen]
solubility (in words) ([1]; background statement): highly soluble
